Assay results published in patent US10080366B2, “Agent for increasing sugar content in fruit” (RIKEN, priority 2012, dated 2018).
Read-outs that look alike come from different tables or passages of the source.

What was measured:
Mikan = conditions: 6 days after treatment
[1] = tested on: harvested fruit of grape (variety: Barikan); conditions: for Sugar content (%) 8 days later, actually measured value / Mass (g) 6 days later (Jun. 8) / Mass (g) 8 days later (Jun. 10): 25° C.; for Mass (g) 6 days later (Jun. 8) / Mass (g) 8 days later (Jun. 10): mass 100 g on date of application; for Sugar content (%) 8 days later, calculated value: calculated from decrease in mass; for Sugar content (%) on date of application (Jun. 2): before application
Method: The fruit of grape was maintained in an air-conditioned greenhouse (temperature: 25° C.), and measured for the mass over time. The sugar content of the fruit was measured before the application and 8 days after the application with a sugar content meter. Next, on the assumption that the change in the mass of the fruit was entirely due to the change in water content, calculated values of the amount of decrease in mass and the sugar content on the date (June 2) of the application were determined […] by using the following calculation formula. (Calculated as follows: the sugar content (%) calculated value))=the sugar content (%) before application×the mass (g) on the date of application/the mass (g) on the date of measurement))

Tomato = conditions: 6 days after treatment
[2] = tested on: clusters of grape (variety: Crimson); experiment: Estimated transpiration ratio of grape clusters (Example 9); assay type: in vivo; conditions: 10 g/L; 8 days after treatment
[3] = tested on: fruit of grape (variety: Red Globe)
Method: An agent for increasing a sugar content in a fruit (containing Sorbon T-20 as a spreader/sticker at a final concentration of 200 μL/L) diluted with water to have a potassium hydrogen carbonate concentration of 10 g/L was prepared. The mass of fruit of grape (variety: Red Globe) purchased on the market was measured. Then, the prepared agent for increasing a sugar content in a fruit was applied by spraying to the fruit of grape. Then, the fruit of grape was allowed to stand in an air-conditioned greenhouse (temperature: 25° C.), and the mass was measured over time (date of application: Apr. 27, 2011; dates of test: May 2, 2011, May 6, 2011, May 9, 2011, May 11, 2011, May 13, 2011, and May 16, 2011). In addition, as a control, the mass of untreated grape was measured on each date of measurement in the same manner.
On the basis of the measured mass, the estimated amount (cumulative value) of transpiration and the estimated amount of transpiration per day were calculated. The results are shown in Tables 5 and 6 and FIGS. 10 and 11.
Note that the vertical axis in FIG. 10 represents the mass (g) of the fruit of grape on each of the dates of measurement per 100 g of the fruit of grape on the date of application, and the vertical axis in FIG. 11 represents the estimated amount (g) of transpiration on each of the dates of measurement per 100 g of the fruit of grape on the date of application. The estimated amount (g) of transpiration on each of the dates of measurement per 100 g of the fruit of grape on the date of application=(the mass (g) of the fruit of grape on the date of application−the mass (g) of the fruit of grape on the date of measurement)/the mass of the fruit of grape on the date of application×100

[4] = tested on: fruit of grape (variety: Red Globe); conditions: for Sugar content (%) May 16: date of application; for mass of fruit as % of the mass on the date of application: 17 days later; for Sugar content (%) Jun. 2 Calculated value: calculated from decrease in mass
Method: The mass of fruit of grape (variety: Red Globe) purchased on the market was measured. Then, the prepared agents for increasing a sugar content in a fruit were applied by spraying to the fruit of grape, which was then allowed to stand in an air-conditioned greenhouse (temperature: 25° C.). With the mass of the grape on the date of application being 100 g, the mass of the grape after the application was measured over time (date of application: May 16, 2011; dates of test: May 19, May 23, May 27, May 30, and Jun. 2, 2011). Next, on the assumption that the change in mass of the fruit was entirely due to the change in water content, the calculated value of the sugar content was determined from the amount of decrease in mass and the sugar content on the date […] of the application (calculated as follows: “the sugar content (calculated value)=the sugar content (%) on the date of application×the mass (g) on the date of application/the mass (g) on the date of measurement”). In addition, as a control, the mass of untreated grape was measured in the same manner. The results are shown in Tables 7 and 8 and FIGS. 12 to 14.

[5] = approximately 3 weeks later (19 days later)
[6] = 10 g/L, May 19, 100 g on May 16

In the case of `O=C([O-])[O-].[K+].[K+]` [Potassium carbonate, potassium carbonate], the “Ratio (%) of decrease in body weight of fruit” value (“Ratio (%) of decrease” for short) (Mikan; dilution ratio 50 (20 g/L)) is reported as 12.0%, the “Ratio (%) of decrease” value (Mikan; dilution ratio 100 (10 g/L)) is reported as 12.4% and the “decrease of mass of fruit in 8 days (June 2 to June 10)” value ([1]; 10 g/L) is reported as 25.56%. The “Sugar content (%) 8 days later, actually measured value” ([1]; 10 g/L) was 24.5%, the “Mass (g) 6 days later (Jun. 8)” value ([1]; 10 g/L) was 80.7 g and the “Mass (g) 8 days later (Jun. 10)” value ([1]; 10 g/L) was 74.5 g. The “action to increase the sugar content in the fruit (comparison)” value ([1]; 10 g/L, 8 days) was “the best”, the “Sugar content (%) 8 days later, calculated value” ([1]; 10 g/L) was 24.2% and the “Sugar content (%) on date of application (Jun. 2)” value (shortened to “Sugar content (%) on date”) [1] was 18.0%. The “Sugar content (%) on date” value ([1]; listed as potassium carbonate) was 18%, the “Ratio (%) of decrease” value (Tomato; dilution ratio 50 (20 g/L)) was 21.1% and the “Ratio (%) of decrease” value (Tomato; dilution ratio 100 (10 g/L)) was 18.0%. The “Estimated transpiration ratio (%) Average” value [2] was 33%, the “Estimated transpiration ratio (%) First” value [2] was 35% and the “Estimated transpiration ratio (%) Second” value [2] was 31%. For the same compound, the “sugar concentration in the fruit (suggested)” value ([3]; 2 weeks later, assuming 20% on April 27, 20/41.4) was “exceeded 48%”, the “Estimated amount (g) of transpiration per 100 g of fruit on date of application” value ([3]; 5 days later) was 18.8 g and the “Mass (g) of fruit per 100 g of fruit on date of application” value (shortened to “Mass (g) of fruit per 100 g of fruit”) ([3]; 5 days later (applied Apr. 27)) was 81.2 g. The “Estimated amount (g) of transpiration per 100 g of fruit on date of application” value ([3]; 9 days later) was 31.5 g, the “Mass (g) of fruit per 100 g of fruit” value ([3]; 9 days later) was 68.5 g and the “Estimated amount (g) of transpiration per 100 g of fruit on date of application” value ([3]; 12 days later) was 40 g. The “Mass (g) of fruit per 100 g of fruit” value ([3]; 12 days later) was 60 g, the “Estimated amount (g) of transpiration per 100 g of fruit on date of application” value ([3]; 14 days later) was 45.8 g and the “Mass (g) of fruit per 100 g of fruit” value ([3]; 14 days later) was 54.2 g. The “Estimated amount (g) of transpiration per 100 g of fruit on date of application” value ([3]; 16 days later) was 51.3 g, the “Mass (g) of fruit per 100 g of fruit” value ([3]; 16 days later) was 48.7 g and the “Estimated amount (g) of transpiration per 100 g of fruit on date of application” value ([3]; 19 days later) was 58.6 g. For the same compound, the “Mass (g) of fruit per 100 g of fruit” value ([3]; 19 days later) was 41.4 g, the “mass as % of the mass on the date of application” value [3, 5] was 41.4% and the “ratio of transpiration of the fruit” value [3, 5] was 58.6%. The “mass relative to mass on the date of application” value ([3]; in 2 weeks) was “approximately ½”, the “estimated amount of transpiration relative to untreated fruit” value ([3]; in vivo) was “two times or more of that of the untreated fruit” and the “Sugar content (%) May 16” value ([4]; 5 g/L group) was 17.6%. The “mass of fruit as % of the mass on the date of application” value (“mass of fruit as % of the mass” below) ([4]; 5 g/L) was 66.6%, the “mass (g) of the fruit” value ([4]; 5 g/L, Jun. 2) was 66.6 g and the “mass (g) of the fruit” value ([4]; 5 g/L, May 19, 100 g on May 16) was 90.8 g. The “mass (g) of the fruit” value ([4]; 5 g/L, May 23) was 84.5 g, the “mass (g) of the fruit” value ([4]; 5 g/L, May 27) was 77 g and the “mass (g) of the fruit” value ([4]; 5 g/L, May 30) was 72.1 g. The “Sugar content (%) Jun. 2 Calculated value” ([4]; 5 g/L) was 26.5%, the “Sugar content (%) May 16” value ([4]; 10 g/L group) was 18.2% and the “mass of fruit as % of the mass” value ([4]; 10 g/L) was 65%. For the same compound, the “mass (g) of the fruit” value ([4]; 10 g/L, Jun. 2) was 65 g, the “mass (g) of the fruit” value [4, 6] was 90.6 g and the “mass (g) of the fruit” value ([4]; 10 g/L, May 23) was 83.9 g. For the same compound, the “mass (g) of the fruit” value ([4]; 10 g/L, May 27) was 75.9 g, the “mass (g) of the fruit” value ([4]; 10 g/L, May 30) was 70.6 g and the “Sugar content (%) Jun. 2 Calculated value” ([4]; 10 g/L) was 28%.
For `O=P([O-])([O-])OP(=O)([O-])[O-].[K+].[K+].[K+].[K+]` [Tetrapotassium pyrophosphate, tetrapotassium pyrophosphate], the “Ratio (%) of decrease” value (Mikan; dilution ratio 100 (10 g/L)) was 10.4%, the “decrease of mass of fruit in 8 days (June 2 to June 10)” value ([1]; 10 g/L) was 19.1% and the “Sugar content (%) 8 days later, actually measured value” ([1]; 10 g/L) was 21.5%. For the same compound, the “Mass (g) 6 days later (Jun. 8)” value ([1]; 10 g/L) was 85.7 g, the “Mass (g) 8 days later (Jun. 10)” value ([1]; 10 g/L) was 80.9 g and the “Sugar content (%) 8 days later, calculated value” ([1]; 10 g/L) was 21.6%. For the same compound, the “Sugar content (%) on date” value [1] was 17.5%, the “Ratio (%) of decrease” value (Tomato; dilution ratio 100 (10 g/L)) was 13.8% and the “Estimated transpiration ratio (%) Average” value [2] was 32%. The “Estimated transpiration ratio (%) First” value [2] was 32%, the “ratio of decrease in mass per day (comparison)” value ([4]; 10 g/L) was “highest ratio of decrease in mass per day” and the “Sugar content (%) May 16” value ([4]; 10 g/L group) was 16.6%. For the same compound, the “mass of fruit as % of the mass” value ([4]; 10 g/L) was 57.3%, the “mass (g) of the fruit” value ([4]; 10 g/L, Jun. 2) was 57.3 g and the “mass (g) of the fruit” value [4, 6] was 86.7 g. The “mass (g) of the fruit” value ([4]; 10 g/L, May 23) was 78.9 g, the “mass (g) of the fruit” value ([4]; 10 g/L, May 27) was 69.8 g and the “mass (g) of the fruit” value ([4]; 10 g/L, May 30) was 63.8 g. The “Sugar content (%) Jun. 2 Calculated value” ([4]; 10 g/L) was 29%.
